Reference: paper PMC11561238, “Discovery and binding mode of small molecule inhibitors of the apo form of human TDO2” (Scientific Reports, 2024)
Where “and” joins values, the source holds several entries; their conditions need not be identical. Equal values may be shown once.

How the values were obtained:
[1] = test system: holo-TDO2; set-up: method as in PMID 27762317; conditions: AMT bound to exosite; cited from earlier work
[2] = molecular target: T1, apo-TDO2 (Homo sapiens, UniProt P48775); experiment: Differential scanning fluorimetry (thermal shift) of apo-TDO2; assay type: binding
T1 construct: a longer construct (His6-aa19-406, with aa406 corresponding to the wild type C-terminal residue), which was used for DSF and other experiments; made in house; host or cells: E. coli RP523 (hemB mutant, unable to synthesize heme)
T1 sequence (P48775 19-406): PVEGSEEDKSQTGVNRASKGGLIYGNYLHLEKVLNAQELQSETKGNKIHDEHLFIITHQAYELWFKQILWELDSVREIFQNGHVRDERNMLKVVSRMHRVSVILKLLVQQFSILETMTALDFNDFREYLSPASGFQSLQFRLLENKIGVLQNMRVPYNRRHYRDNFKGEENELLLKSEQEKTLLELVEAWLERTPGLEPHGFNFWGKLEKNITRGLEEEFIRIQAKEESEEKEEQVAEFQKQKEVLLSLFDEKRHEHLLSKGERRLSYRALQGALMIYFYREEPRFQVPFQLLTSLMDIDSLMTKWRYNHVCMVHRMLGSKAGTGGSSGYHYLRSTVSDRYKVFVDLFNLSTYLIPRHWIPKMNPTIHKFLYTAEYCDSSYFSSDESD
Method: […] S5 online).
Protein thermal stability and small molecule ligand binding of TDO2 in vitro was studied using differential scanning fluorimetry (DSF, also known as thermal shift assay)[34]. Assay ingredients and ligands were combined to obtain a mixture composed of 10 µM TDO2 and 10x SYPRO Orange, in assay buffer (50 mM HEPES-NaOH pH 8.0, 200 mM NaCl, 2 mM TCEP, 10% glycerol) and 2% final DMSO concentration. Small molecule chemical ligands were taken from DMSO stock solution (100 mM, 10 mM) and diluted in DMSO transferred to wells of PCR Plates (Micro Amp Fast 96-well Reaction Plates, Applied Biosystems) to ensure matching final DMSO concentrations.
DSF was carried out with a StepOnePlus™ real time PCR system. Thermal denaturation of TDO2 was monitored with a ramp rate of 1 K/min. Protein melting curves were evaluated using the Thermal Shift Software v 1.3. (Thermo Fisher Scientific) to derive differences in midpoint melting-temperatures (derivative model). The thermal shift (DTm) is documented as the difference between the reference midpoint melting temperature of proteins (containing 500 µM AMT) in the presence of the ligand vehicle (DMSO) and in the presence of ligand.
Supplementary Table S2. Differential scanning fluorimetry data corresponding to supplementary figure S4. The experiments were carried out in quadruplicate, or in triplicate where single outlier values (highlighted in bold italics) were excluded from calculation of the melting curves. AMT was added at a concentration of 500 µM; […] and […] were added at a concentration of 25 µM.

[3] = test system: patients with unresectable or metastatic melanoma; set-up: method as in PMID 31221619; conditions: with pembrolizumab, vs placebo; cited from earlier work
[4] = apo-TDO2 + AMT 500 µM alone, shift vs apo, single replicates, in °C

Structure (SMILES) | effect on catalytic properties of holo-TDO2 [1] | effect on proteolytic degradation of holo-TDO2 [1] | stabilization of isolated holo-TDO2 enzyme [1] | melting temperature of apo-TDO2 in the absence of inhibitor ([2]; 500 µM AMT present) [°C] | Δ Tm Boltzmann [2, 4] | Δ Tm Derivative [2, 4] | Tm Boltzmann ([2]; apo-TDO2 + AMT 500 µM alone, single replicates (text b14 gives °C), in °C) | Tm Derivative ([2]; apo-TDO2 + AMT 500 µM alone, single replicates, in °C) | progression-free survival or overall survival [3]
C[C@](N)(Cc1c[nH]c2ccccc12)C(=O)O [AMT, α-methyltryptophan, reference compound] | not affecting the catalytic properties | prevented its proteolytic degradation by the ubiquitin-dependent proteasomal pathway | stabilized the isolated holo-TDO2 enzyme against heat, urea and proteases | 59.2 | 9.95 and 10.71 and 10.46 | 9.6 and 10.48 and 10.27 | 58.75 and 59.51 and 59.26 | 58.49 and 59.36 and 59.16 | –
NS(=O)(=O)NCCNc1nonc1C(=NO)Nc1ccc(F)c(Br)c1 [epacadostat] | – | – | – | – | – | – | – | – | failed to show improved progression-free survival or overall survival compared with placebo
